Where two headings read alike, the source gives them in different places.
Tests used:
Assay in all cases: HPLC-MS/MS quantitation of accumulated cofactor, steady state
Format in all cases: biochemical
Settings in all cases: co-substrate ATP
[1] = target: T1, mouse MAT2A (Mus musculus, UniProt Q3THS6)
T1 construct: recombinant, produced in vitro from bacterial cells; monogenic multimer without MAT2B
Excerpt: (§1) HPLC-MS/MS quantitation of accumulated cofactor, steady state on mouse MAT2A

[2] = target: T2, mouse MAT2A (Mus musculus, UniProt Q3THS6, S114A/I117A)
T2 construct: recombinant, produced in vitro from bacterial cells; monogenic multimer without MAT2B
Excerpt: as §1

[3] = target: T3, mouse MAT2A (Mus musculus, UniProt Q3THS6, Q113N/I117A)
T3 construct: recombinant, produced in vitro from bacterial cells; monogenic multimer without MAT2B
Excerpt: as §1

[4] = target: T4, mouse MAT2A (Mus musculus, UniProt Q3THS6, I117A)
T4 construct: recombinant, produced in vitro from bacterial cells; monogenic multimer without MAT2B
Excerpt: as §1

T1 sequence (Q3THS6 whole entry): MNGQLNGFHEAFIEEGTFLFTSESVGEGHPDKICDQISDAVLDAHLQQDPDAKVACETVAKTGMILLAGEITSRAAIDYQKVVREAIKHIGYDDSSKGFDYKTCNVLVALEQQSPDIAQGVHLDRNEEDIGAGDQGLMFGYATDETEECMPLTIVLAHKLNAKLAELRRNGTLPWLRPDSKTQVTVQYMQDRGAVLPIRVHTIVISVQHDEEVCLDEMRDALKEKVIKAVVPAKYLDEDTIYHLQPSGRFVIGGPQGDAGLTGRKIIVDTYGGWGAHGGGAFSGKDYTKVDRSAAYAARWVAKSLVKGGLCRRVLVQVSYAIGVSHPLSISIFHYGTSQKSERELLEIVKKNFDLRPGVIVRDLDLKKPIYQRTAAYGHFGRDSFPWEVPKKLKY
T2 sequence (Q3THS6 whole entry S114A/I117A): as the sequence (Q3THS6 whole entry) above, with S114A, I117A counted along it
T3 sequence (Q3THS6 whole entry Q113N/I117A): as the sequence (Q3THS6 whole entry) above, with Q113N, I117A counted along it
T4 sequence (Q3THS6 whole entry I117A): as the sequence (Q3THS6 whole entry) above, with I117A counted along it

Km ([1]; read-out: Km /) | Km ([2]; read-out: Km /) | Km ([3]; read-out: Km /) | Km ([4]; read-out: Km /) | SMILES | Km ([1]; read-out: Km / mM) | Km ([2]; read-out: Km / mM) | Km ([3]; read-out: Km / mM) | Km ([4]; read-out: Km / mM)
0.02 ± 0.003 mM | 1.4 ± 0.41 mM | 1.4 ± 0.56 mM | 0.645 ± 0.023 mM | CSCC[C@H](N)C(=O)O [Met, L-methionine] |  |  |  | 
 |  |  |  | [N-]=[N+]=NCCCC#CCSCC[C@H](N)C(=O)O [N3-Met, S-(6-azidohex-2-yn-1-yl)-L-homocysteine] | 1.03 ± 0.23 mM | 1.52 ± 0.043 mM | 1.44 ± 0.27 mM | 0.92 ± 0.1 mM

Reference: publication PMC11240257, “Engineered Methionine Adenosyltransferase Cascades for Metabolic Labeling of Individual DNA Methylomes in Live Cells” (Journal of the American Chemical Society, 2024)
